# Test results: patent US7531577B2, “Arylsulfonamidyl tetralin derivatives and uses thereof” (Roche Palo Alto LLC, priority 2006, dated 2009)
# Counter-ions that a name gives are not always drawn.
# System: not given
# Assay: not given
# Details: not given
row,Compound,melting point [°C]
1,"CNCC1CCCc2cc(NS(=O)(=O)c3cccc(F)c3)ccc21 (stereo not shown) (as salt: oxalate) [Compound 5, 3-Fluoro-N-(5-methylaminomethyl-5,6,7,8-tetrahydro-naphthalen-2-yl)-benzenesulfonamide]",135 to 136
2,"CN(c1ccc2c(c1)CCCC2CN)S(=O)(=O)c1cccc(F)c1 (stereo not shown) (as salt: oxalate) [Compound 9, N-(5-Aminomethyl-5,6,7,8-tetrahydro-naphthalen-2-yl)-3-fluoro-N-methyl-benzenesulfonamide]",176 to 177
3,"NC(=O)NCC1CCCc2cc(NS(=O)(=O)c3cccc(F)c3)ccc21 (stereo not shown) [Compound 6, 3-Fluoro-N-(5-ureidomethyl-5,6,7,8-tetrahydro-naphthalen-2-yl)-benzenesulfonamide]",162 to 163
4,"O=CNCC1CCCc2cc(NS(=O)(=O)c3cccc(F)c3)ccc21 (stereo not shown) [Compound 7, 3-Fluoro-N-(5-formylaminomethyl-5,6,7,8-tetrahydro-naphthalen-2-yl)-benzenesulfonamide]",143 to 144

# Next, values leading:
row,melting point [°C],Compound
1,164 to 165,"NCC1CCCc2cc(NS(=O)(=O)c3ccccc3)ccc21 (stereo not shown) [Compound 2, N-(5-Aminomethyl-5,6,7,8-tetrahydro-naphthalen-2-yl)-benzenesulfonamide]"
2,136 to 137,"CC(=O)NCC1CCCc2cc(NS(=O)(=O)c3cccc(F)c3)ccc21 (stereo not shown) [Compound 8, N-[6-(3-Fluoro-benzenesulfonylamino)-1,2,3,4-tetrahydro-naphthalen-1-ylmethyl]-acetamide]"

# Target: T1, recombinant human 5-HT6 receptor (Homo sapiens, UniProt P50406)
# T1 construct: expressed in transfected cells; membranes
# T1 sequence (P50406 whole entry): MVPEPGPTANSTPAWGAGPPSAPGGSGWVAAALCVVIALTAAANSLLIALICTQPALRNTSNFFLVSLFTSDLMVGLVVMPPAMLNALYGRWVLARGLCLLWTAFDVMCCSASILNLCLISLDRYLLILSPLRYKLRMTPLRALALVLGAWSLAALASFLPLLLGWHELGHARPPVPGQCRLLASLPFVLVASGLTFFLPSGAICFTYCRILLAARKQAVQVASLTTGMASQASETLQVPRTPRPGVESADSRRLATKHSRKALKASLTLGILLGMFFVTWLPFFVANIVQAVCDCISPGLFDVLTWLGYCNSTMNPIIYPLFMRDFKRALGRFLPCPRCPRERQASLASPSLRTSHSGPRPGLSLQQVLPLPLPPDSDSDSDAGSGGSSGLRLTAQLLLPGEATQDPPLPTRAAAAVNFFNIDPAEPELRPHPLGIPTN
# Assay: Radioligand binding, [3H]LSD competition in membranes of HEK293 cells expressing 5-HT6
# Details: [3H]LSD displacement, pH 7.4, 37° C., read-out: pKi for 5-HT6 (converted)
# Description: The binding activity of compounds of this invention in vitro was determined as follows. Duplicate determinations of 5-HT6 ligand affinity were made by competing for binding of [^3H]LSD in cell membranes derived from HEK293 cells stably expressing recombinant human 5-HT6 receptor. Duplicate determinations of 5-HT2A ligand affinity were made by competing for binding of [^3H]Ketanserin (3-(2-(4-(4-fluorobenzoyl)piperidinol)ethyl)-2,4(1H,3H)-quinazolinedione) in cell membranes derived from CHO-K1 cells stably expressing recombinant human 5-HT2A receptor. Membranes were prepared from HEK 293 cell lines by the method described by Monsma et al., Molecular Pharmacology, Vol. 43 pp. 320-327 (1993), and from CHO-K1 cell lines as described by Bonhaus et al., Br J Pharmacol. June; 115(4):622-8 (1995).
# For estimation of affinity at the 5-HT6 receptor, all determinations were made in assay buffer containing 50 mM Tris-HCl, 10 mM MgSO4, 0.5 mM EDTA, 1 mM ascorbic acid, pH 7.4 at 37° C., in a 250 microliter reaction volume. […]
# Assay tubes containing [^3H] […] LSD or [^3H]Ketanserin were determined as radioactive counts per minute using Packard TopCount.
# Displacement of [^3H]LSD or [^3H]Ketanserin from the binding sites was quantified by fitting concentration-binding data to a 4-parameter logistic equation: […]
row,Ki [nM],Compound
1,~0.138,"CNCC1CCCc2cc(NS(=O)(=O)c3ccccc3)ccc21 (stereo not shown) [N-(5-Methylaminomethyl-5,6,7,8-tetrahydro-naphthalen-2-yl)-benzenesulfonamide]"
